In US9115143B2, “Substituted indole derivatives as gamma secretase modulators” (Janssen Pharmaceuticals, Inc., priority 2011, dated 2015):

Columns and labels:
[1] = tested on: Aβ42; assay: In vivo efficacy B-1a: brain soluble Aβ42 in non-transgenic rodents, ELISA; design: species or system mouse; settings: dose 30 mg/kg oral dosing, brain soluble fraction, untreated animals (Ctrl) set at 100; for response vs control in vivo at 30 mg/kg: Mus musculus, po, read-out: Aβ42 (% vs Ctrl)_Mean
Text: (§1) To determine whether acute administration of an Aβ42 lowering agent would reduce Aβ42 levels in vivo, non-transgenic rodents, e.g. mice or rats were used. Animals treated with the Aβ42 lowering agent were examined and compared to those untreated or treated with vehicle and brain levels of soluble Aβ42 and total Aβ were quantitated by standard techniques, for example, using ELISA. Treatment periods varied from hours (h) to days and were adjusted based on the results of the Aβ42 lowering once a time course of onset of effect could be established.
(§2) A typical protocol for measuring Aβ42 lowering in vivo is shown but it is only one of many variations that could be used to optimize the levels of detectable Aβ. For example, Aβ42 lowering compounds were formulated in 20% of Captisol® (a sulfobutyl ether of β-cyclodextrin) in water or 20% hydroxypropyl β cyclodextrin. The Aβ42 lowering agents were administered as a single oral dose or by any acceptable route of administration to overnight fasted animals. After 4 h, the animals were sacrificed and Aβ42 levels were analysed.
(§3) Blood was collected by decapitation and exsanguinations in EDTA-treated collection tubes. Blood was centrifuged at 1900 g for 10 minutes (min) at 4° C. and the plasma recovered and flash frozen for later analysis. The brain was removed from the cranium and hindbrain. The cerebellum was removed and the left and right hemisphere were separated. The left hemisphere was stored at −18° C. for quantitative analysis of test compound levels. The right hemisphere was rinsed with phosphate-buffered saline (PBS) buffer and immediately frozen on dry ice and stored at −80° C. until homogenization for biochemical assays.
(§4) Mouse brains from non-transgenic animals were resuspended in 8 volumes of 0.4% DEA (diethylamine)/50 mM NaCl containing protease inhibitors (Roche-11873580001 or 04693159001) per gram of tissue, e.g. for 0.158 g brain, add 1.264 mL of 0.4% DEA. All samples were homogenized in the FastPrep-24 system (MP Biomedicals) using lysing matrix D (MPBio #6913-100) at 6 m/s for 20 seconds. Homogenates were centrifuged at 20800×g for 5 min and supernatants collected. Supernatants were centrifuged at 221.300×g for 50 min. The resulting high speed supernatants were then transferred to fresh eppendorf tubes. Nine parts of supernatant were neutralized with 1 part 0.5 M Tris-HCl pH 6.8 and used to quantify Aβtotal and Aβ42.
To quantify the amount of Aβtotal and Aβ42 in the soluble fraction of the brain homogenates, Enzyme-Linked-Immunosorbent-Assays were used. Briefly, the standards (a dilution of synthetic Aβ1-40 and Aβ1-42, Bachem) were prepared in 1.5 mL Eppendorf tube in Ultraculture, with final concentrations ranging from 10000 to 0.3 pg/mL. The samples and standards were co-incubated with HRPO-labelled N-terminal antibody JRF/rAμ/2 for Aβ42 detection and with the biotinylated mid-domain antibody 4G8 for Aβtotal detection. 50 μl of conjugate/sample or conjugate/standards mixtures were then added to the antibody-coated plate (the capture antibodies selectively recognize the C-terminal end of Aβ42, antibody JRF/cAβ42/26, for Aβ42 detection and the N-terminus of AB, antibody JRF/rAβ/2, for Aβtotal detection). The plate was allowed to incubate overnight at 4° C. in order to allow formation of the antibody-amyloid complex. Following this incubation and subsequent wash steps the ELISA for Aβ42 quantification was finished by addition of Quanta Blu fluorogenic peroxidase substrate according to the manufacturer's instructions (Pierce Corp., Rockford, Ill.). A reading was performed after 10 to 15 min (excitation 320 nm/emission 420 nm).
In this model a Aβ42 lowering compared to untreated animals would be advantageous, in particular a Aβ42 lowering with at least 10%, more in particular a Aβ42 lowering with at least 20%.
The results are shown in Table 4 (dose 30 mg/kg oral dosing) (value for untreated animals as control (Ctrl) was set at 100): […]

[2] = tested on: Aβ38; assay: In vivo efficacy B-2a: brain soluble Aβ38 in non-transgenic rodents, ELISA; design: species or system mouse; settings: dose 30 mg/kg oral dosing, brain soluble fraction, untreated animals (Ctrl) set at 100; for response vs control in vivo at 30 mg/kg: Mus musculus, po, read-out: Aβ38 (% vs Ctrl)_Mean
Text: Aβ38 increasing agents can be administered in any standard form using any standard method. For example, but not limited to, Aβ38 increasing agents can be in the form of liquid, tablets or capsules that are taken orally or by injection.
as §1, with “Aβ38 increasing agents” for “Aβ42 lowering agent”, “increase Aβ38” for “reduce Aβ42”, “Aβ38” for “Aβ42”, “Aβ38 increase” for “Aβ42 lowering”
as §2, with “measuring Aβ38 increase” for “measuring Aβ42 lowering”, “example, Aβ38 increasing agents” for “example, Aβ42 lowering compounds”, “The Aβ38 increasing” for “The Aβ42 lowering”, “and Aβ38” for “and Aβ42”
as §3
as §4, with “Aβ38.” for “Aβ42.”
To quantify the amount of Aβtotal and Aβ38 in the soluble fraction of the brain homogenates, Enzyme-Linked-Immunosorbent-Assays were used. Briefly, the standards (a dilution of synthetic Aβ1-40 and Aβ1-38, ANASPEC) were prepared in 1.5 mL Eppendorf tube in Ultraculture, with final concentrations ranging from 10000 to 0.3 pg/mL. The samples and standards were co-incubated with HRPO-labelled N-terminal antibody for Aβ38 detection and with the biotinylated mid-domain antibody 4G8 for Aβtotal detection. 50 μl of conjugate/sample or conjugate/standards mixtures were then added to the antibody-coated plate (the capture antibodies selectively recognize the C-terminal end of Aβ38, antibody J&JPRD/Aβ38/5, for Aβ38 detection and the N-terminus of Aβ, antibody JRF/rAβ/2, for Aβtotal detection). The plate was allowed to incubate overnight at 4° C. in order to allow formation of the antibody-amyloid complex. Following this incubation and subsequent wash steps the ELISA for Aβ38 quantification was finished by addition of Quanta Blu fluorogenic peroxidase substrate according to the manufacturer's instructions (Pierce Corp., Rockford, Ill.). A reading was performed after 10 to 15 min (excitation 320 nm/emission 420 nm). […]

SMILES	response vs control in vivo at 30 mg/kg [1] [%]	response vs control in vivo at 30 mg/kg [2] [%]	Aβ38 (% vs Ctrl)_Mean ([2]; 30 mg/kg) [% vs Ctrl]	other results
N#Cc1ccc2[nH]c(-c3nc4n(n3)CCCC4c3ccccc3C(F)(F)F)cc2c1 (stereo not shown) [Compound 18, 2-[5,6,7,8-tetrahydro-8-[2-(trifluoromethyl)phenyl][1,2,4]triazolo[1,5-a]pyridin-2-yl]-1H-indole-5-carbonitrile]	88	87		
N#Cc1ccc2[nH]c(-c3nc4n(n3)CCCC4c3cccc(OC(F)(F)F)c3)cc2c1 (stereo not shown) [Compound 20, 2-[5,6,7,8-tetrahydro-8-[3-(trifluoromethoxy)phenyl][1,2,4]triazolo[1,5-a]pyridin-2-yl]-1H-indole-5-carbonitrile]	93	122		
Cc1cn(-c2cc3cc(-c4nc5n(n4)CCCC5c4ccccc4C)[nH]c3cn2)cn1 (stereo not shown) [Compound 30, 5,6,7,8-tetrahydro-2-[5-(4-methyl-1H-imidazol-1-yl)-1H-pyrrolo[2,3-c]pyridin-2-yl]-8-(2-methylphenyl)-[1,2,4]triazolo[1,5-a]pyridine]	91	118		
Cc1cn(-c2ccc3[nH]c(-c4nc5n(n4)CCOC5c4ccccc4C(F)(F)F)cc3c2)cn1 (stereo not shown) [Compound 37, 5,6-dihydro-2-[5-(4-methyl-1H-imidazol-1-yl)-1H-indol-2-yl]-8-[2-(trifluoromethyl)phenyl]-8H-[1,2,4]triazolo[5,1-c][1,4]oxazine]	64	118		
Cc1cn(-c2ccc3[nH]c(-c4nc5n(n4)CCOC5c4ccc(F)cc4C)cc3c2)cn1 (stereo not shown) [Compound 39, 8-(4-fluoro-2-methylphenyl)-5,6-dihydro-2-[5-(4-methyl-1H-imidazol-1-yl)-1H-indo-2-yl]-8H-[1,2,4]triazolo[5,1-c][1,4]oxazine]				Aβ42 (% vs Ctrl)_Mean [1]: 74 % vs Ctrl; Aβ38 (% vs Ctrl)_Mean [2]: 132 % vs Ctrl
COc1c(C#N)ccc2[nH]c(-c3cn4c(n3)C(c3ccc(F)cc3C)OCC4)cc12 (stereo not shown) [Compound 46, 2-[8-(4-fluoro-2-methylphenyl)-5,6-dihydro-8H-imidazo[2,1-c][1,4]oxazin-2-yl]-4-methoxy-1H-indole-5-carbonitrile]	52		109	
COc1c(C#N)ccc2[nH]c(-c3cn4c(n3)C(c3ccc(F)cc3C)OCC4)cc12 (stereo not shown) [Compound 47, 2-[8-(4-fluoro-2-methylphenyl)-5,6-dihydro-8H-imidazo[2,1-c][1,4]oxazin-2-yl]-4-methoxy-1H-indole-5-carbonitrile]			87	Aβ42 (% vs Ctrl)_Mean ([1]; 30 mg/kg): 45 % vs Ctrl
COc1c(C#N)ccc2[nH]c(-c3nc4n(n3)CCOC4c3ccccc3C(F)(F)F)cc12 (stereo not shown) [Compound 55, 2-[5,6-dihydro-8-[2-(trifluoromethyl)phenyl]-8H-[1,2,4]triazolo[5,1-c][1,4]oxazin-2-yl]-4-methoxy-1H-indole-5-carbonitrile]	55	130		
COc1c(C#N)ccc2[nH]c(-c3nc4n(n3)CCCC4c3ccc(F)cc3C)cc12 (stereo not shown) [Compound 59, 2-[8-(4-fluoro-2-methylphenyl)-5,6,7,8-tetrahydro[1,2,4]triazolo[1,5-a]pyridin-2-yl]-4-methoxy-1H-indole-5-carbonitrile]	55	91		
Cc1cc(F)ccc1C1CCCn2cc(-c3cc4cc(C#N)ccc4[nH]3)nc21 (stereo not shown) [Compound 63, 2-[8-(4-fluoro-2-methylphenyl)-5,6,7,8-tetrahydroimidazo[1,2-a]pyridin-2-yl]-1H-indole-5-carbonitrile]			98	Aβ42 (% vs Ctrl)_Mean ([1]; 30 mg/kg): 121 % vs Ctrl
Cc1cc(F)ccc1C1CCCn2cc(-c3cc4cc(C#N)ccc4[nH]3)nc21 (stereo not shown) [Compound 64, 2-[8-(4-fluoro-2-methylphenyl)-5,6,7,8-tetrahydroimidazo[1,2-a]pyridin-2-yl]-1H-indole-5-carbonitrile]			122	Aβ42 (% vs Ctrl)_Mean ([1]; 30 mg/kg): 48 % vs Ctrl
